Source: patent US20120149663A1, “BORONIC ACID COMPOSITIONS AND METHODS RELATED TO CANCER” (GEORGETOWN UNIVERSITY, priority 2009, published 2012)
Where two headings read alike, the source gives them in different places. Values belong to the compound of their own block, whether it stands above or below them.

Legend:
[1] = tested on: E2-mediated MCF-7 cell growth; assay: DNA content in estrogen mediated MCF-7 cell growth; format: cell-based, human; details: E2 10^−9M constant
Method: After 5 days incubation, the DNA content of the treated cells was measured using a DNA fluorescence kit (Bio Rad #170-2480). Results are shown as the mean of triplicate samples±SD. The experiment was repeated twice with identical results. […] Cells were then seeded in 24 well plates at 10000 cells per well in 1 ml of estrogen depleted media. […] Cells were incubated at 37° C. for an additional 4 days. Media were removed and cells were frozen at −78° C. overnight and the DNA content in each well was measured according to the manufacturer's protocol (DNA Quantification Kit, Bi0-Rad). Results are represented as mean of triplicate sample and repeated the experiment with identical results.

[2] = tested on: ER+, estrogen-dependent human breast cancer MCF-7 cell line; assay: Cell growth assay (WST-1 assay), MCF-7; format: cell-based; details: for MCF-7 cell growth inhibition (in words): MCF-7, WST-1
Method: Results are the mean value of triplicate samples. […] Cell viability was finally determined by adding WST-1 reagent and measuring the optical absorbance at […] and 630 nm as described in “Materials and methods”. […] The IC50 for each cell line was calculated using graph pad prism. Data are expressed as mean (SEM) of triplicate samples. […] The IC50 for each cell line was calculated using graph pad prism. Data are expressed as mean (SEM) of triplicate sample. ER-Positive (MCF-7) human breast carcinoma cell line was used in this study. The human breast cell lines MCF-7 (HTB-22) were provided by the tissue culture core facility at Lombardi Comprehensive Cancer Center, Georgetown University Medical Center. […] Robert Clarke from the Georgetown University Medical Center. […] The effect of cis-4 and trans-4 or resveratrol on cell growth was determined by WST-1 assay. Briefly, cells were seeded into a 96-well plate at 3,500 cells per well in DMEM containing 10% FBS. After overnight incubation, cells were treated with the compounds (1-100 μM) for 48 h and 72 h at 37° C. Control cells were treated with an equal amount of DMSO. After the indicated incubation time, cell viability was measured by WST-1 assay according to the manufacturer's instructions (Roche). […] The water soluble tetrazolium salt of WST-1 is converted into orange formazan by dehydrogenase in the mitochondria of living cells. The formazan absorbance, which correlates to the number of living cells, was recorded at wavelengths of 450 nm and 630 nm using a microplate reader (Ultramark, Microplate Imaging System, Bio-Rad). The GI50 was calculated from the graph of the log of compound concentration versus the fraction of the surviving cells.

[3] = tested on: cdk4, cdk2, cyclin E, cyclin D1 and pRb in MCF-7 cells; assay: Western blot of G1 cell cycle proteins; format: cell-based, human; details: MCF-7, 24 h and 48 h, immunoblot
Method: MCF-7 cells were treated with the indicated concentrations of compound 2 for 24 hours and 48 hours and cell lysates were analyzed by immunoblotting. Protein expression of positive regulators such as cyclin D1, Cdk4, cyclinE, Cdk2 and phospho-Rb were detected by their specific antibodies. Human β-actin was analyzed as a control of gel loading. Twenty-micrograms of lysate was used for each experimental condition.
Western blotting was performed as previously published (J Biol Chem 2004, 279, 38903-38911). In brief, cell pellets were collected at the indicated times after treatment with compounds, suspended in 100 μl, of lysis buffer (50 mM Tris-HCl, 150 mM NaCl, 1 mM EGTA, 1 mM EDTA, 20 mM NaF, […], 0.5% NP-40, 1% Triton X-100, 1 mM PMSF, 5 μg/ml aprotinin, 5 μg/ml leupeptin), vortexed twice and incubated in an ice bath for 30 min Lysates were cleared by centrifugation at 12000 rpm for 15 min at 4° C. and protein was estimated by detergent compatible BCA protein assay kit (Pierce). Equivalent amounts of total proteins were resolved by SDS-PAGE (10%) and transferred to PVDF membranes. Membranes were blocked by 5% non-fat powdered milk in TBST overnight. […]

[4] = Stability compared with resveratrol; format: physicochemical
MCF-7 cells [5] = assay: Combination with flavopiridol, WST-1 cell viability; format: cell-based, human; details: for Sensitization to flavopiridol (in words): MCF-7; for GI50: Homo sapiens, MCF7
Method: A Wst-1 assay was performed to measure the cell viability as mentioned in the methods. GI50 are the average of triplicate samples and the experiment was repeated thrice with identical results. The effect of cis-4 and trans-4 or resveratrol on cell growth was determined by WST-1 assay. Briefly, cells were seeded into a 96-well plate at 3,500 cells per well in DMEM containing 10% FBS. After overnight incubation, cells were treated with the compounds (1-100 μM) for 48 h and 72 h at 37° C. Control cells were treated with an equal amount of DMSO. After the indicated incubation time, cell viability was measured by WST-1 assay according to the manufacturer's instructions (Roche). […] The water soluble tetrazolium salt of WST-1 is converted into orange formazan by dehydrogenase in the mitochondria of living cells. The formazan absorbance, which correlates to the number of living cells, was recorded at wavelengths of 450 nm and 630 nm using a microplate reader (Ultramark, Microplate Imaging System, Bio-Rad). The GI50 was calculated from the graph of the log of compound concentration versus the fraction of the surviving cells.

[6] = tested on: CL 10.3 cells (MCF-7 MDR, over-expresses the MDR gene); assay: Cell growth assay (WST-1 assay), multidrug resistant CL 10.3; format: cell-based, human; details: for GI50: CL 10.3 Breast (MDR), 72 h, read-out: Cell Survival (WST-1 assay, GI50, 72 h) CL 10.3; for Activity in multidrug resistant cells (in words): CL 10.3 compared with MCF-7; for MDR GI50/non-MDR GI50: CL 10.3 versus MCF-7, 72 h; for P-glycoprotein substrate (in words): inferred from activity in MDR cell line CL 10.3
Method: IC50 value (the concentration yielding 50% growth inhibition) was extrapolated from the graph of the log of compound concentration versus the fraction of surviving cells. The 1050 for each cell line was calculated using graph pad prism. Data are expressed as mean (SEM) of triplicate sample. Results are mean value of triplicate samples.
ER-Positive (MCF-7) human breast carcinoma cell line was used in this study. The human breast cell lines MCF-7 (HTB-22) were provided by the tissue culture core facility at Lombardi Comprehensive Cancer Center, Georgetown University Medical Center. MCF-7^MDR (CL 10.3) cells were a gift from Dr. Robert Clarke from the Georgetown University Medical Center. MCF-7, and CL 10.3 cells were maintained in DMEM (Biofluids, Frederick, Md.) supplemented 10% heat inactivated fetal bovine serum (FBS), 2 mM L-glutamine, and 50 μg/mL each of antibiotics, namely penicillin, streptomycin, and neomycin at 37° C. in a humidified incubator containing 5% CO2.
The effect of cis-4 and trans-4 or resveratrol on cell growth was determined by WST-1 assay. Briefly, cells were seeded into a 96-well plate at 3,500 cells per well in DMEM containing 10% FBS. After overnight incubation, cells were treated with the compounds (1-100 μM) for 48 h and 72 h at 37° C. Control cells were treated with an equal amount of DMSO. After the indicated incubation time, cell viability was measured by WST-1 assay according to the manufacturer's instructions (Roche). Briefly, 20 μL of WST-1 solution was added in each well and incubated for 2-4 hours. The water soluble tetrazolium salt of WST-1 is converted into orange formazan by dehydrogenase in the mitochondria of living cells. The formazan absorbance, which correlates to the number of living cells, was recorded at wavelengths of 450 nm and 630 nm using a microplate reader (Ultramark, Microplate Imaging System, Bio-Rad). The GI50 was calculated from the graph of the log of compound concentration versus the fraction of the surviving cells.

MCF-7 cells [7] = details: MCF-7, 300 μM, Clin Cancer Res 2002; cited from earlier work
MCF-7 cells [8] = assay: Cell cycle analysis by flow cytometry (propidium iodide); format: cell-based, human; details: MCF-7, 30 μM, 16, 24, 48 h
Method: FIGS. 10A and 10B show the effect of compounds on cell cycle distribution in MCF-7 breast cancer cell lines. A. […] B. Percentage of DNA distribution of trans-4 in G1 phase was presented in a bar graph. Results are represented as a mean of triplicate samples. The experiment was repeated thrice with identical results. The effect of cis-4, trans-4 or resveratrol on cell cycle progression was analyzed by flow cytometry. Cells were seeded in 6-well plates and treated with 30 μM of compound 1 or 2 at different time intervals (16, 24, 48 h). Cells were trypsinized, centrifuged at 2000 rpm and cell pellets were collected. Pellets were washed with 1×PBS, permeabilized with 70% (v/v) ethanol, resuspended in 1 ml of PBS containing 1 mg/ml RNase and […] propidium iodide, incubated in the dark for 30 min at room temperature, and analysed by a FACSort Flow Cytometer (Becton Dickinson, San jose, CA). The cell cycle distribution was evaluated on DNA plots using the Modfit software (Verity softwarehouse, Topsham, Me.).

[9] = MCF-7, 48 h, read-out: Cell Survival (WST-1 assay, GI50) 48 hours
[10] = MCF-7, 72 h, read-out: Cell Survival (WST-1 assay, GI50) 72 hours

Compound: COc1ccc(/C=C/c2cc(OC)c(OC)c(OC)c2)cc1B(O)O [trans-4, 2-Methoxy-5-[(E)-2-(3,4,5-trimethoxyphenyl)vinyl]boronic acid]
Effect on E2-mediated MCF-7 cell growth (in words) [1]: does not have any effect on E2-induced cell growth
GI50 [2, 9]: 36.6 µM
GI50 [2, 10]: 31.1 ± 0.05 µM
Activity relative to Resveratrol ([2]; breast cancer): 3 fold
Expression level of G1 cell cycle proteins (in words) ([3]; listed as YK-5-104): decreases the pRb levels
Expression level of G1 cell cycle proteins (in words) ([3]; listed as compound 2): decreases the expression level of cdk4, cdk2, cyclin E, cyclin D1 and pRb
Stability compared with Resveratrol (in words) [4]: more stable than Resveratrol
Sensitization to flavopiridol (in words) (MCF-7 cells [5]): modulates the flavopiridol mediated cell viability
Fold increase in growth inhibition compared with trans-4 (MCF-7 cells [5]; MCF-7, opposite administration: 100 nM flavopiridol 24 hours then trans-4): 7 fold
Fold increase of flavopiridol mediated growth inhibition compared with flavopiridol alone (MCF-7 cells [5]; MCF-7, trans-4 then flavopiridol): 16.6 fold
GI50 [6]: 49.09 ± 0.001 µM
Activity in multidrug resistant cells (in words) [6]: equipotent in CL 10.3 and MCF-7 cells
Activity in multidrug resistant cells (in words) ([6]; listed as Compound 2): can work on multidrug resistant cell lines
MDR GI50/non-MDR GI50 [6]: 1.57
P-glycoprotein substrate (in words) [6]: likely not a substrate for P-glycoprotein
P-glycoprotein substrate (in words) ([6]; listed as YK-5-104): not a substrate for p-glycoprotein

GI50 (MCF-7 cells [5]; MCF-7, 10 μM trans-4 for 24 hours then flavopiridol 48 hours, read-out: GI50, combination of trans-4 with flavopiridol): 0.018 µM
GI50 (MCF-7 cells [5]; MCF-7, flavopiridol alone, 48 h, read-out: GI50, flavopiridol only): 0.3 µM
Compound: CN1CC[C@H](c2c(O)cc(O)c3c(=O)cc(-c4ccccc4Cl)oc23)[C@H](O)C1 [flavopiridol, reference compound]

Compound: Oc1ccc(C=Cc2cc(O)cc(O)c2)cc1 [Resveratrol, reference compound]
Effect on E2-mediated MCF-7 cell growth (in words) [1]: antagonizes E2-mediated MCF-7 cell growth
Cell cycle arrest by resveratrol in previous studies (in words) (MCF-7 cells [7]): S-phase cell cycle arrest
Effect on cell cycle distribution (in words) (MCF-7 cells [8]): works at the G2/M1 phase
Sensitization to flavopiridol (in words) (MCF-7 cells [5]): does not sensitize the MCF-7 cells incubated with flavopiridol

MDR GI50/non-MDR GI50 [6]: >25,000
Compound: CC(=O)O[C@H]1C(=O)[C@@]2(C)[C@H]([C@H](OC(=O)c3ccccc3)[C@]3(O)C[C@H](OC(=O)[C@H](O)[C@@H](NC(=O)c4ccccc4)c4ccccc4)C(C)=C1C3(C)C)[C@]1(OC(C)=O)CO[C@@H]1C[C@@H]2O [Paclitaxel, reference compound]
MCF-7 cell growth inhibition (in words) [2]: strongly inhibits MCF-7 cell growth
Activity in multidrug resistant cells (in words) [6]: has no effect on CL 10.3 cells
GI50 ([6]; Homo sapiens, MCF7): > 50 µM

Compound: [(Z)-2-(3,5-dimethoxyphenyl)vinyl]phenylboronic Acid [cis-4]
GI50 [2, 9]: > 100 µM
GI50 [2, 10]: > 100 µM
MCF-7 cell growth inhibition (in words) [2]: does not show any growth inhibition at 100 μM
